IC50 data for 19 compounds are collected here from patent US8835436B2 (priority 2009, dated 2014).

For the assay, the target named is human recombinant 5-HT2C receptor (Homo sapiens (Human), UniProt P28335). The following applies: read-out: Binding affinity to serotonin receptor 5-HT2C: IC50.

Where a name gives a salt, the structure may show the parent alone.

Sequence of human recombinant 5-HT2C receptor (P28335 whole entry, looked up): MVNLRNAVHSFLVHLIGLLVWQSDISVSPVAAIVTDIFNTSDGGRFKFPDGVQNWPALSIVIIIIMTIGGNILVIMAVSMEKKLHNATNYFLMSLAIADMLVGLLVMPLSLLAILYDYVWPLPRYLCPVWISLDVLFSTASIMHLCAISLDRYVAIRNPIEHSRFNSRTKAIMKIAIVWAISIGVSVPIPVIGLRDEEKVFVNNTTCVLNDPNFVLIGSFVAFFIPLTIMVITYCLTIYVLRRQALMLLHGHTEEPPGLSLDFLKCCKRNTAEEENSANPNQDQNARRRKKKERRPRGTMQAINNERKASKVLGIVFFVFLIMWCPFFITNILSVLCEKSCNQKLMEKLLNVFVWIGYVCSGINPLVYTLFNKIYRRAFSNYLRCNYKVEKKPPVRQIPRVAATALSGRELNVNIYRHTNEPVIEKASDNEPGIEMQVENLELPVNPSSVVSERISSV
Protocol: Receptor binding affinities of the compounds for serotonin receptors were measured by the method described in the literature [Park W K et al., Pharmacol Biochem Behay.
The binding affinity (IC50) of a compound for the receptor was calculated by computerized nonlinear regression analysis (GraphPad Prism Program, San Diego, USA) using 7-8 varied concentrations of the compound run in duplicate tubes.
Nonspecific binding was determined using 100 uM mianserin. The incubations were performed for 60 min at 27° C., and these were terminated by rapid filtration through filtermate A glass fiber filter presoaked in 0.5% PEI.

As for `COc1ccccc1-n1c(C)nc(C(=O)NCC(O)CN2CCN(c3cccc(C)c3C)CC2)c1C` (stereo not shown) [Example 100, N-(3-(4-(2,3-dimethylphenyl)piperazin-1-yl)-2-hydroxypropyl)-1-(2-methoxyphenyl)-2,5-dimethyl-1H-imidazole-4-carboxamide dihydrochloride], the IC50 worked out at 207 nM.
In the case of `Cc1ccc(-n2c(C)nc(C(=O)NCCCN3CCN(c4cccc(C)c4C)CC3)c2C)cc1` [Example 147, N-(3-(4-(2,3-dimethylphenyl)piperazin-1-yl)propyl)-2,5-dimethyl-1-p-tolyl-1H-imidazole-4-carboxamide dihydrochloride] it was 78.1 nM.
In the case of `CCCc1nc(C(=O)NCCCN2CCN(c3cccc(Cl)c3Cl)CC2)c(C)n1-c1ccccc1` [Example 7, N-(3-(4-(2,3-dichlorophenyl)piperazin-1-yl)propyl)-5-methyl-1-phenyl-2-propyl-1H-imidazole-4-carboxamide dihydrochloride] it was 189 nM; in that of `CCCn1c(C)nc(C(=O)NCC(O)CN2CCN(c3cccc(C)c3C)CC2)c1C` (stereo not shown) [Example 96, N-(3-(4-(2,3-dimethylphenyl)piperazin-1-yl)-2-hydroxypropyl)-2,5-dimethyl-1-propyl-1H-imidazole-4-carboxamide dihydrochloride], above 10000 nM; in that of `Cc1nc(C(=O)NCCCN2CCN(c3cccc(Cl)c3Cl)CC2)c(C)n1-c1ccccc1` [Example 6, N-(3-(4-(2,3-dichlorophenyl)piperazin-1-yl)propyl)-2,5-dimethyl-1-phenyl-1H-imidazole-4-carboxamide], 12.1 nM.
As to `COc1cc(OC)cc(-n2c(C)nc(C(=O)NCCN3CCN(c4cccc(C)c4C)CC3)c2C)c1` [Example 112, 1-(3,5-dimethoxyphenyl)-N-(2-(4-(2,3-dimethylphenyl)piperazin-1-yl)ethyl)-2,5-dimethyl-1H-imidazole-4-carboxamide dihydrochloride], the IC50 came out at 63 nM.
The figure for `Cc1ccc(-n2c(C)nc(C(=O)NCC(O)CN3CCN(c4cccc(C)c4C)CC3)c2C)cc1` (stereo not shown) [Example 148, N-(3-(4-(2,3-dimethylphenyl)piperazin-1-yl)-2-hydroxypropyl)-2,5-dimethyl-1-p-tolyl-1H-imidazole-4-carboxamide dihydrochloride] is 705 nM; for `CCCc1nc(C(=O)NCC(O)CN2CCN(c3cccc(C)c3C)CC2)cn1-c1ccccc1` (stereo not shown) [Example 121, N-(3-(4-(2,3-dimethylphenyl)piperazin-1-yl)-2-hydroxypropyl)-1-phenyl-2-propyl-1H-imidazole-4-carboxamide dihydrochloride] it is 635 nM; for `COc1ccccc1-n1c(C)nc(C(=O)NCCCN2CCN(c3cccc(Cl)c3Cl)CC2)c1C` [Example 145, N-(3-(4-(2,3-dichlorophenyl)piperazin-1-yl)propyl)-1-(2-methoxyphenyl)-2,5-dimethyl-1H-imidazole-4-carboxamide dihydrochloride] it is 25.5 nM.
`Cc1cccc(N2CCN(CCNC(=O)c3nc(C)n(-c4ccc5c(c4)OCO5)c3C)CC2)c1C` [Example 115, 1-(benzo[d][1,3]dioxol-5-yl)-N-(2-(4-(2,3-dimethylphenyl)piperazin-1-yl)ethyl)-2,5-dimethyl-1H-imidazole-4-carboxamide dihydrochloride]: the IC50 is 27 nM.
Turning to `Cc1cccc(N2CCN(CC(O)CNC(=O)c3nc(-c4ccccc4)n(-c4ccccc4)c3C)CC2)c1C` (stereo not shown) [Example 155, N-(3-(4-(2,3-dimethylphenyl)piperazin-1-yl)-2-hydroxypropyl)-5-methyl-1,2-diphenyl-1H-imidazole-4-carboxamide dihydrochloride], the IC50 came to 525 nM.
For the compound `Cc1cccc(N2CCN(CCCNC(=O)c3nc(C)n(CC(C)C)c3C)CC2)c1C` [Example 92, N-(3-(4-(2,3-dimethylphenyl)piperazin-1-yl)propyl)-1-isobutyl-2,5-dimethyl-1H-imidazole-4-carboxamide dihydrochloride], the IC50 came out at 10100 nM.
The figure for `Cc1cccc(N2CCN(CCNC(=O)c3nc(C)n(-c4ccc(F)cc4)c3C)CC2)c1C` [Example 114, N-(2-(4-(2,3-dimethylphenyl)piperazin-1-yl)ethyl)-1-(4-fluorophenyl)-2,5-dimethyl-1H-imidazole-4-carboxamide dihydrochloride] is 46 nM; for `Cc1cccc(N2CCN(CC(O)CNC(=O)c3nc(C)n(CC(C)C)c3C)CC2)c1C` (stereo not shown) [Example 94, N-(3-(4-(2,3-dimethylphenyl)piperazin-1-yl)-2-hydroxypropyl)-1-isobutyl-2,5-dimethyl-1H-imidazole-4-carboxamide dihydrochloride] it is 595 nM.
The figure for `CCCc1nc(C(=O)NCC(O)CN2CCN(c3cccc(C)c3C)CC2)cn1-c1ccc(Cl)cc1` (stereo not shown) [Example 111, 1-(4-chlorophenyl)-N-(3-(4-(2,3-dimethylphenyl)piperazin-1-yl)-2-hydroxypropyl)-2-propyl-1H-imidazole-4-carboxamide dihydrochloride] is 661 nM; for `CCc1c(C(=O)NCCCN2CCN(c3cccc(Cl)c3Cl)CC2)nc(-c2ccc(Cl)cc2Cl)n1-c1ccc(Br)cc1` [Example 89, 1-(4-bromophenyl)-2-(2,4-dichlorophenyl)-N-(3-(4-(2,3-dichlorophenyl)piperazin-1-yl)propyl)-5-ethyl-1H-imidazole-4-carboxamide] it is 319 nM; for `CCCc1nc(C(=O)NCCCN2CCN(c3cccc(C)c3C)CC2)cn1-c1ccccc1` [Example 117, N-(3-(4-(2,3-dimethylphenyl)piperazin-1-yl)propyl)-1-phenyl-2-propyl-1H-imidazole-4-carboxamide dihydrochloride] it is 103 nM.
With `COc1ccc(-n2cc(C(=O)NCCCN3CCN(c4cccc(C)c4C)CC3)nc2-c2ccccc2)cc1` [Example 134, N-(3-(4-(2,3-dimethylphenyl)piperazin-1-yl)propyl)-1-(4-methoxyphenyl)-2-phenyl-1H-imidazole-4-carboxamide dihydrochloride], the IC50 was found to be 101 nM.
In the case of `CCc1nc(C(=O)NCCN2CCN(c3cccc(Cl)c3Cl)CC2)c(C)n1-c1ccccc1` [Example 13, N-(2-(4-(2,3-dichlorophenyl)piperazin-1-yl)ethyl)-2-ethyl-5-methyl-1-phenyl-1H-imidazole-4-carboxamide] it was 62 nM.

As usually defined, the IC50 is the concentration needed to halve the response being measured.
